Laboratory results: patent US9796727B2, “Field effect transistor” (Nippon Kayaku Kabushiki Kaisha, priority 2009, dated 2017)
Converted amounts (≈) assume the structure as drawn.

Assay: Solubility measurement in toluene
Type: physicochemical
Conditions: 60° C.
Description: Example 1: Solubility Measurement
In Table 2, solubility (g/L) in toluene at 60° C. is listed.

| Structure (SMILES) | solubility in toluene |
| --- | --- |
| CCCCCCCCCCCCc1ccc2cc3c(cc2c1)sc1c2cc4ccc(CCCCCCCCCCCC)cc4cc2sc31 [Compound No. 14, 6,6′-Didodecyldinaphtho[2,3-b:2′,3′-f]thieno[3,2-b]thiophen] | 40 µg/mL (≈ 59.1 µM) |
| CCCCCCCCc1ccc2cc3c(cc2c1)sc1c2cc4ccc(CCCCCCCC)cc4cc2sc31 [Compound No. 10, 6,6′-dioctyldinaphtho[2,3-b:2′,3′-f]thieno[3,2-b]thiophen] | 60 µg/mL (≈ 106 µM) |
| CCCCCCCCCCc1ccc2cc3c(cc2c1)sc1c2cc4ccc(CCCCCCCCCC)cc4cc2sc31 [Compound No. 12, 6,6′-Didecyldinaphtho[2,3-b:2′,3′-f]thieno[3,2-b]thiophen] | 50 µg/mL (≈ 80.5 µM) |

Now from value to molecule:

| solubility in toluene | Structure (SMILES) |
| --- | --- |
| 80 µg/mL (≈ 157 µM) | CCCCCCc1ccc2cc3c(cc2c1)sc1c2cc4ccc(CCCCCC)cc4cc2sc31 [compound 6, 6,6′-Dihexyldinaphtho[2,3-b:2′,3′-f]thieno[3,2-b]thiophen] |
| ≤ 10 µg/mL | c1ccc2cc3c(cc2c1)sc1c2cc4ccccc4cc2sc31 [ref. 1, dinaphtho[2,3-b:2′,3′-f]thieno[3,2-b]thiophene, reference compound] |
| 20 µg/mL (≈ 44.2 µM) | CCCCc1ccc2cc3c(cc2c1)sc1c2cc4ccc(CCCC)cc4cc2sc31 [ref. 2, 6,6′-Dibutyldinaphtho[2,3-b:2′,3′-f]thieno[3,2-b]thiophen, reference compound] |
